Assay results taken from patent publication US6261814A, “Carboxylic acid reductase, and methods of using same” (University of Iowa Research Foundation, priority 1998, dated 2001).
Several values for one entry are separate records, joined by “and”; a condition that tells them apart may be missing. Identical values can stand only once.

What was measured:
[1] = target: T1, carboxylic acid reductase (aryl aldehyde oxidoreductase) (Nocardia iowensis, UniProt Q6RKB1); assay: Substrate specificity of crude carboxylic acid reductase (100,000×g supernatant); assay type: biochemical, Nocardia sp. NRRL 5646; set-up: Crude enzyme preparations consisting of 100,000×g supernatants were used in this study; endogenous in cells; host or cells: Nocardia sp; NRRL 5646, crude 100,000×g supernatant; details: for Relative Activity: 5 mM substrate, 0.15 mM NADPH, 1 mM ATP, 50 mM Tris-HCl pH 7.5, percentage of the initial rate of benzoate reduction; for quality as substrate of the enzyme (in words): substrates of Table 2
Experimental: (§1) Enzyme assay. The standard aryl-aldehyde oxidoreductase assay solution contained 0.15 mM […], 1 mM ATP, and 5 mM sodium benzoate, 10 mM MgCl2 and 0.01 to 0.3 units of enzyme in 50 mM Tris-HCl buffer in a final volume of 0.7 ml. The reference cuvette contained all components except for benzoate. Enzyme reactions were initiated by adding enzyme, and they were monitored by recording the absorption decrease at 340 nm at 25° C. with a Shimadzu 160 spectrophotometer.
Crude enzyme preparations consisting of 100,000×g supernatants were used in this study. […] The relative rate of reduction for each carboxylic acid derivative is expressed as the percentage of the initial rate of benzoate reduction.
The range of oxidoreductase activities of crude, 100,000×g Nocardia extract with a variety of substrates was investigated. Various substituted 2-, 3- and 4-substituted benzoates were examined, including a range of ring-activating and ring-deactivating functional groups. Benzoates substituted with halogens, methyl, methoxy, hydroxy, acetyl, nitro, benzoyl, phenyl, and phenoxyl groups as well as aryl-ring systems containing two (naphthalene) and three (fluorene) rings, and heterocyclic aromatic acids including furoic, nicotinic and indole carboxylic acids were considered. In addition, one cinnamic acid derivative, phenyl-acetate, phenyl-malonate, phenyl-succinate and 2-phenylpropionic acid were studied.

[2] = target: T1, carboxylic acid reductase (aryl aldehyde oxidoreductase); assay: Kinetic properties of the purified carboxylic acid reductase (standard enzyme assay); details: for apparent Km relative to Km reported for the enzyme from Nocardia asteroides: higher than values reported by Kato et al.; for turn-over number: calculated assuming pure enzyme and one active site per molecule; for Vmax: mean of three determinations; for type of inhibition: versus benzoic acid
Experimental: as §1
Kinetic constants were obtained by fitting experimental data with the EZ-FIT program developed by Perrella (Perrella, Anal. Biochem. 174:437-447 (1987)).
S(+)-α-Methyl-4-[2-methylpropyl]-benzeneacetic acid (ibuprofen) was from Aldrich Chemical Co. R(-) isomer of ibuprofen was a gift from Dr. Ching-Shih Chen, University of Rhode Island (Chen et al., Biochim. Biophys. Acta 1033:1-6 (1990)). […] Substrate enantiopurities were checked by specific rotation determination for each isomer (Chen and Rosazza, Appl. Environ. Microbiol. 60(4):1292-1296 (1994)).

[3] = target: T2, carboxylic acid reductase (Nocardia iowensis, UniProt Q6RKB1); assay: Enzymatic reduction of vanillic acid to vanillin by purified carboxylic acid reductase; assay type: biochemical, Nocardia sp. NRRL 5646; details: UV spectrophotometric assay at 340 nm; 30° C., 24 hours
T2 construct: isolated and substantially purified from Nocardia sp. strain NRRL 5646; endogenous in cells; host or cells: Nocardia sp; NRRL 5646, benzoate-induced culture; enzyme purified by Mono-Q, Reactive Green 19 agarose and hydroxyapatite chromatography
Experimental: The reaction mixture was incubated at 30° C. with gentle shaking for 24 hours, after which the entire reaction mixture was loaded onto a solid phase extraction cartridge (Chem Elut 1200, 200 ml aqueous solution capacity). After 5 min. of equilibration, the cartridge was washed with 2×100 ml of hexane, then washed again with 2×100 ml of dichloromethane (concentrated to less than 2 ml).
The extract was then transferred to a vial and the solvent was removed with a stream of nitrogen to give about 8 mg of the purified vanillin end product.
Mass spectrometry, ^1 H, and ^13 C NMR data confirmed that this compound was vanillin. The yield was determined to be 96% with UV spectrophotometric assay at 340 nm.

[4] = tested on: Nc1ncnc2c1ncn2[C@@H]1O[C@H](COP(=O)(O)OP(=O)(O)OP(=O)(O)O)[C@@H](O)[C@H]1O; assay: purified protein, by the assay type; details: other: purified enzyme; mean of three determinations; pH 7.5; 25.0 °C
[5] = tested on: CC(C)Cc1ccc([C@@H](C)C(=O)O)cc1; assay: purified protein, by the assay type; details: other: purified enzyme; mean of three determinations; pH 7.5; 25.0 °C
[6] = tested on: NC(=O)C1=CN([C@@H]2O[C@H](COP(=O)(O)OP(=O)(O)OC[C@H]3O[C@@H](n4cnc5c(N)ncnc54)[C@H](OP(=O)(O)O)[C@@H]3O)[C@@H](O)[C@H]2O)C=CC1; assay: purified protein, by the assay type; details: other: purified enzyme; mean of three determinations; pH 7.5; 25.0 °C
[7] = tested on: CC(C)Cc1ccc([C@H](C)C(=O)O)cc1; assay: purified protein, by the assay type; details: other: purified enzyme; mean of three determinations; pH 7.5; 25.0 °C
[8] = Stability of the purified enzyme in buffer; assay type: physicochemical; details: 50 mM pH 7.5 Tris-HCl buffer, 10% glycerol, 8 hr at 4° C.
Experimental: Properties of the carboxylic acid reductase (aryl-aldehyde oxidoreductase).Inclusion of 10% glycerol in all chromatographic buffers was used to stabilize the enzyme. Nevertheless, the purified enzyme in 50 mM pH 7.5 Tris-HCl buffer, containing 10% glycerol, lost nearly […] of its activity in 8 hr at 4° C.

[9] = target: T1, carboxylic acid reductase (aryl aldehyde oxidoreductase); assay: Standard aryl-aldehyde oxidoreductase assay: specific activity of the purified enzyme; assay type: biochemical, Nocardia sp. NRRL 5646; set-up: isolated and substantially purified from Nocardia sp. strain NRRL 5646; endogenous in cells; host or cells: Nocardia sp; NRRL 5646, benzoate-induced culture; enzyme purified by Mono-Q, Reactive Green 19 agarose and hydroxyapatite chromatography; details: after hydroxyapatite step
Experimental: as §1, with “spectrophotometer. One unit of the carboxylic acid reductase (aryl-aldehyde oxidoreductase) is defined as the amount of enzyme that catalyzes the reduction of 1 μmol benzoate to benzaldehyde per min. under standard assay conditions.” for “spectrophotometer.”
Protein assay. The concentration of protein was measured by the Bradford protein microassay (Bradford, Anal. Biochem. 72:248-254 (1976)), with bovine serum albumin as the standard.

T1 sequence (Q6RKB1 whole entry): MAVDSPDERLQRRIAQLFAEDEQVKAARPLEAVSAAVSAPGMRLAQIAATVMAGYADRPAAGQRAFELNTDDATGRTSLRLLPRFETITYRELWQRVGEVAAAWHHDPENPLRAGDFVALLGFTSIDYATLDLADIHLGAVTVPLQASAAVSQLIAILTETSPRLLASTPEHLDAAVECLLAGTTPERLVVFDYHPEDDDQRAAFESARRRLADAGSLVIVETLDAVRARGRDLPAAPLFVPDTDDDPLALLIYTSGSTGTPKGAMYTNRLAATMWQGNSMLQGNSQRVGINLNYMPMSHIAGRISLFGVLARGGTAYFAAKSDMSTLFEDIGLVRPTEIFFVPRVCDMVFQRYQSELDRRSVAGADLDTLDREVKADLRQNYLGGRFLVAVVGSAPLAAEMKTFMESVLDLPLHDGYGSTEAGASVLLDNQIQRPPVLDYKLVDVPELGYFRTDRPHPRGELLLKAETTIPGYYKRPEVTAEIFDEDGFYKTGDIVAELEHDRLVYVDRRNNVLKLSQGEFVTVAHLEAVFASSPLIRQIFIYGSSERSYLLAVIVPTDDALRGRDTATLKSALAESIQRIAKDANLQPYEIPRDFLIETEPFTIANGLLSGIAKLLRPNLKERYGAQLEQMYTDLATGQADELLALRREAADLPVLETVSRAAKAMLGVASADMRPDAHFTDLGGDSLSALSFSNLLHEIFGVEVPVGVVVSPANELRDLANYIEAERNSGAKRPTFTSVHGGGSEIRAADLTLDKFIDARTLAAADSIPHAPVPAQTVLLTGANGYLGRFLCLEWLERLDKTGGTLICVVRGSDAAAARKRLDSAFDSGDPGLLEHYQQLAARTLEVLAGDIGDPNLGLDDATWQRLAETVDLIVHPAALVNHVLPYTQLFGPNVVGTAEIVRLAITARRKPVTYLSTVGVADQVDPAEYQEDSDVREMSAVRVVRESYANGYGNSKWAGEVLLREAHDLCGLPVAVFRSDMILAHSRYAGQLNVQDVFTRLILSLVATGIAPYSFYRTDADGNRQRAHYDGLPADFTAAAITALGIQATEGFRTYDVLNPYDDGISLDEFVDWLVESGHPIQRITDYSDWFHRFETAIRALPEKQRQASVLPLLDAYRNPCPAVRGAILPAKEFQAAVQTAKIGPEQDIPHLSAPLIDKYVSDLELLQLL
T2 sequence (Q6RKB1 whole entry): as above

Molecule: Cc1ccc(C(=O)O)cc1 [4-toluic acid]
- Relative Activity [1]: 82 percentage
- quality as substrate of the enzyme (in words) [1]: best substrates

Molecule: Nc1ncnc2c1ncn2[C@@H]1O[C@H](COP(=O)(O)OP(=O)(O)OP(=O)(O)O)[C@@H](O)[C@H]1O [ATP]
- apparent Km relative to Km reported for the enzyme from Nocardia asteroides [2]: more than 1000 fold

Molecule: NC(=O)C1=CN([C@@H]2O[C@H](COP(=O)(O)OP(=O)(O)OC[C@H]3O[C@@H](n4cnc5c(N)ncnc54)[C@H](OP(=O)(O)O)[C@@H]3O)[C@@H](O)[C@H]2O)C=CC1 [NADPH]
- apparent Km relative to Km reported for the enzyme from Nocardia asteroides [2]: more than 1000 fold

Molecule: CC(C)Cc1ccc([C@@H](C)C(=O)O)cc1 [R(-)-ibuprofen]
- turn-over number [2]: 21 min⁻¹
- Vmax ([2]; purified enzyme, listed as R(-) isomer): 1.33+0.02 μmol/min/mg of protein
- Vmax ([2]; purified enzyme, listed as R-(-)): 0.15 μmol/min/mg of protein

Molecule: CC(C)Cc1ccc([C@H](C)C(=O)O)cc1 [S(+)-ibuprofen, S(+)-α-Methyl-4-[2-methylpropyl]-benzeneacetic acid]
- turn-over number [2]: 186 min⁻¹
- Vmax ([2]; purified enzyme, listed as S(+) isomer): 0.148±0.003 μmol/min/mg of protein
- Vmax ([2]; purified enzyme, listed as S-(+)): 1.33 μmol/min/mg of protein

Molecule: Nc1ccccc1C(=O)O [anthranilic acid, 2-amino benzoic acid]
- Ki [2]: 261 ± 30 µM
- NADPH oxidation with the compound in place of benzoic acid ([2]; 5 mM in the enzyme assay solution): no NADPH oxidation was observed
- type of inhibition ([2]; listed as 2-amino benzoic acid): typical competitive inhibitor
- type of inhibition ([2]; listed as Anthranilic acid): competitive inhibitor

Molecule: O=Cc1ccccc1 [benzaldehyde]
- reduction of benzaldehyde to benzyl alcohol ([2]; purified enzyme): did not reduce

Molecule: O=C(O)c1cccc2c1Cc1ccccc1-2 [fluorene-1-carboxylic acid]
- Relative Activity [1]: 17 percentage

Molecule: O=C(O)c1cc2ccccc2[nH]1 [indole-2-carboxylic acid]
- Relative Activity [1]: 0 percentage

Molecule: O=C(O)c1c[nH]c2ccccc12 [indole-3-carboxylic acid]
- Relative Activity [1]: 2 percentage

Molecule: O=C(O)c1cccc2[nH]ccc12 [indole-4-carboxylic acid]
- Relative Activity [1]: 0 percentage

Molecule: O=C(O)c1ccc2[nH]ccc2c1 [indole-5-carboxylic acid]
- Relative Activity [1]: 10 percentage

Molecule: O=C(O)c1cccnc1 [nicotinic acid]
- Relative Activity [1]: 5 percentage
- quality as substrate of the enzyme (in words) [1]: slower rates than benzoate

Molecule: O=C(O)Cc1ccccc1 [phenyl acetic acid]
- Relative Activity [1]: 43 percentage
- quality as substrate of the enzyme (in words) [1]: slower rates than benzoate

Molecule: O=C(O)C(C(=O)O)c1ccccc1 [phenyl malonic acid]
- Relative Activity [1]: 3 percentage
- quality as substrate of the enzyme (in words) [1]: slower rates than benzoate

Molecule: O=C(O)CC(C(=O)O)c1ccccc1 (centres unmarked) [phenyl succinic acid]
- Relative Activity [1]: 11 percentage
- quality as substrate of the enzyme (in words) [1]: slower rates than benzoate

Molecule: COc1cc(C=O)ccc1O [vanillin, 4-hydroxy-3-methoxy-benzaldehyde]
- yield of vanillin [3]: 96%

Molecule: carboxylic acid reductase (aryl-aldehyde oxidoreductase) (Nocardia iowensis)
- Km [4]: 57.3 µM and 29.3 ± 3.1 µM
- Km [5]: 34.5 µM
- Km [6]: 29.3 µM and 57.3 ± 12.5 µM
- Km [7]: 155 µM

B1: Purified carboxylic acid reductase: carboxylic acid reductase (aryl-aldehyde oxidoreductase) isolated and purified from Nocardia sp. strain NRRL 5646 (protein, UniProt Q6RKB1 2-1174, looked up)
Carboxylic acid reductase: AVDSPDERLQRRIAQLFAEDEQVKAARPLEAVSAAVSAPGMRLAQIAATVMAGYADRPAAGQRAFELNTDDATGRTSLRLLPRFETITYRELWQRVGEVAAAWHHDPENPLRAGDFVALLGFTSIDYATLDLADIHLGAVTVPLQASAAVSQLIAILTETSPRLLASTPEHLDAAVECLLAGTTPERLVVFDYHPEDDDQRAAFESARRRLADAGSLVIVETLDAVRARGRDLPAAPLFVPDTDDDPLALLIYTSGSTGTPKGAMYTNRLAATMWQGNSMLQGNSQRVGINLNYMPMSHIAGRISLFGVLARGGTAYFAAKSDMSTLFEDIGLVRPTEIFFVPRVCDMVFQRYQSELDRRSVAGADLDTLDREVKADLRQNYLGGRFLVAVVGSAPLAAEMKTFMESVLDLPLHDGYGSTEAGASVLLDNQIQRPPVLDYKLVDVPELGYFRTDRPHPRGELLLKAETTIPGYYKRPEVTAEIFDEDGFYKTGDIVAELEHDRLVYVDRRNNVLKLSQGEFVTVAHLEAVFASSPLIRQIFIYGSSERSYLLAVIVPTDDALRGRDTATLKSALAESIQRIAKDANLQPYEIPRDFLIETEPFTIANGLLSGIAKLLRPNLKERYGAQLEQMYTDLATGQADELLALRREAADLPVLETVSRAAKAMLGVASADMRPDAHFTDLGGDSLSALSFSNLLHEIFGVEVPVGVVVSPANELRDLANYIEAERNSGAKRPTFTSVHGGGSEIRAADLTLDKFIDARTLAAADSIPHAPVPAQTVLLTGANGYLGRFLCLEWLERLDKTGGTLICVVRGSDAAAARKRLDSAFDSGDPGLLEHYQQLAARTLEVLAGDIGDPNLGLDDATWQRLAETVDLIVHPAALVNHVLPYTQLFGPNVVGTAEIVRLAITARRKPVTYLSTVGVADQVDPAEYQEDSDVREMSAVRVVRESYANGYGNSKWAGEVLLREAHDLCGLPVAVFRSDMILAHSRYAGQLNVQDVFTRLILSLVATGIAPYSFYRTDADGNRQRAHYDGLPADFTAAAITALGIQATEGFRTYDVLNPYDDGISLDEFVDWLVESGHPIQRITDYSDWFHRFETAIRALPEKQRQASVLPLLDAYRNPCPAVRGAILPAKEFQAAVQTAKIGPEQDIPHLSAPLIDKYVSDLELLQLL
- loss of activity [8]: ~250%
- specific activity [9]: 5.9 units/mg of protein
